In DBAASP:
In brackets after ≈: the same amount, converted by molar mass. Several values for one entry are separate records, joined by “and”; a condition that tells them apart may be missing. Equal values may be shown once.

Assays:
Assay in all cases: ≥ marks a high value that may be exact or a test limit, other limits are often not marked, values filed in µg/mL are converted to µM
[1] = system: Achromobacter xylosoxidans
Candida albicans = system: Candida albicans
Escherichia coli UB1005 = system: Escherichia coli UB1005
[2] = system: Pseudomonas aeruginosa ATCC 9027
[3] = system: Pseudomonas aeruginosa M1251
[4] = system: Pseudomonas aeruginosa M1426
[5] = system: Pseudomonas aeruginosa M76
[6] = system: Pseudomonas aeruginosa M917
[7] = system: Pseudomonas aeruginosa R70
Pseudomonas aeruginosa = system: Pseudomonas aeruginosa
Pseudomonas fluorescens = system: Pseudomonas fluorescens
[8] = system: Salmonella enterica serovar Typhimurium
[9] = system: Staphylococcus aureus ATCC 6538
Staphylococcus aureus = system: Staphylococcus aureus
[10] = system: Stenotrophomonas maltophilia
Aeromonas hydrophila = system: Aeromonas hydrophila
Escherichia coli MG1655 = system: Escherichia coli MG1655
Vibrio harveyi = system: Vibrio harveyi
[11] = system: Candida albicans ATCC 200955
[12] = system: Candida albicans ATCC 36232
Candida glabrata = system: Candida glabrata
[13] = system: Candida krusei ATCC 200917
[14] = system: Candida krusei ATCC 90878
Candida tropicalis = system: Candida tropicalis
Cryptococcus neoformans = system: Cryptococcus neoformans
[15] = system: Escherichia coli ATCC 2592
[16] = system: Micrococcus luteus ATCC 9341
Bacillus subtilis C971 = system: Bacillus subtilis C971
[17] = system: Corynebacterium xerosis C875
[18] = system: Enterococcus faecalis C625
[19] = system: Escherichia coli ATCC 25922
Escherichia coli DC2 = system: Escherichia coli DC2
[20] = system: Klebsiella pneumoniae ATCC 700603
[21] = system: Pseudomonas aeruginosa ATCC 27853
[22] = system: Pseudomonas aeruginosa H187
[23] = system: Pseudomonas aeruginosa H188
[24] = system: Salmonella typhimurium C587
[25] = system: Salmonella typhimurium C610
[26] = system: Staphylococcus aureus ATCC 25923
[27] = system: Staphylococcus aureus SAP 0017
[28] = system: Staphylococcus epidermidis ATCC 12228
[29] = system: Staphylococcus epidermidis C621
[30] = system: Streptococcus pneumoniae ATCC 49619
[31] = system: Acinetobacter baumannii ATCC 19606
[32] = system: Escherichia coli BW25113 ΔsbmA
Escherichia coli BW25113 = system: Escherichia coli BW25113

CC(C)C[C@H](NC(=O)[C@H](CC(C)C)NC(=O)[C@H](CCCCN)NC(=O)[C@H](CCCCN)NC(=O)[C@H](C)NC(=O)[C@H](CC(C)C)NC(=O)[C@H](CCCCN)NC(=O)[C@H](C)NC(=O)[C@H](CC(C)C)NC(=O)[C@H](CC(C)C)NC(=O)[C@H](CCCCN)NC(=O)[C@H](C)NC(=O)[C@@H](N)Cc1ccccc1)C(N)=O [FAKLLAKLAKKLL]
MIC [1]: ≥ 43.9 µM | MIC (Candida albicans): 5.49 µM (≈ 7.99 µg/mL) | MIC (Escherichia coli UB1005): 2.75 µM (≈ 4 µg/mL) | MIC [2]: 68.6 µM (≈ 99.9 µg/mL) | MIC [3]: 2.75 µM (≈ 4 µg/mL) | MIC [4]: 5.49 µM (≈ 7.99 µg/mL) | MIC [5]: 2.75 µM (≈ 4 µg/mL) | MIC [6]: 11 µM (≈ 16 µg/mL) | MIC [7]: 2.75 µM (≈ 4 µg/mL) | MIC (Pseudomonas aeruginosa): 5.49 µM (≈ 7.99 µg/mL) | MIC (Pseudomonas fluorescens): 5.49 µM (≈ 7.99 µg/mL) | MIC [8]: 2.75 µM (≈ 4 µg/mL) | MIC [9]: 3.43 µM (≈ 5 µg/mL) | MIC (Staphylococcus aureus): 2.75 µM (≈ 4 µg/mL) | MIC [10]: 1.37 µM (≈ 2 µg/mL)

CC[C@H](C)[C@H](NC(=O)[C@H](C)NC(=O)[C@H](CCCN=C(N)N)NC(=O)[C@H](Cc1cnc[nH]1)NC(=O)[C@@H](NC(=O)[C@H](C)NC(=O)[C@H](CCCN=C(N)N)NC(=O)[C@@H](NC(=O)CNC(=O)[C@H](Cc1cnc[nH]1)NC(=O)[C@H](CO)NC(=O)[C@@H](NC(=O)[C@H](Cc1c[nH]c2ccccc12)NC(=O)CNC(=O)[C@@H](NC(=O)[C@@H](NC(=O)[C@H](Cc1cnc[nH]1)NC(=O)[C@H](C)NC(=O)[C@@H](NC(=O)[C@@H](N)Cc1ccccc1)[C@@H](C)CC)[C@@H](C)CC)[C@@H](C)CC)[C@@H](C)CC)C(C)C)[C@@H](C)CC)C(=O)N[C@@H](Cc1cnc[nH]1)C(N)=O [FIAHIIGWISHGVRAIHRAIH]
MIC (Aeromonas hydrophila): ≥ 128 µM | MIC (Escherichia coli MG1655): 16 µM and ≥ 32 µM | MIC (Vibrio harveyi): ≥ 32 µM

CC(C)[C@H](NC(=O)[C@H](CCCCN)NC(=O)[C@H](Cc1ccccc1)NC(=O)[C@@H](NC(=O)[C@@H](NC(=O)[C@H](CCCCN)NC(=O)[C@@H](N)CCCCN)C(C)C)C(C)C)C(=O)N[C@@H](CCCCN)C(=O)N[C@@H](Cc1ccccc1)C(=O)N[C@@H](CCCCN)C(=O)N[C@@H](CCCCN)C(N)=O [KKVVFKVKFKK]
MIC [11]: 3.2 µM (≈ 4.41 µg/mL) | MIC [12]: 2.27 µM and 3.21 µM and 4.53 µM | MIC (Candida albicans): 5.8 µM (≈ 7.99 µg/mL) | MIC (Candida glabrata): 23.2 µM (≈ 32 µg/mL) | MIC [13]: 1.6 µM (≈ 2.2 µg/mL) | MIC [14]: 1.6 µM (≈ 2.2 µg/mL) | MIC (Candida tropicalis): 2.9 µM (≈ 4 µg/mL) | MIC (Cryptococcus neoformans): 2.9 µM (≈ 4 µg/mL) | MIC [15]: 7.98 µM (≈ 11 µg/mL) | MIC [16]: 2.27 µM (≈ 3.13 µg/mL) | MIC [2]: 4.35 µM (≈ 6 µg/mL) | MIC [9]: 2.27 µM (≈ 3.13 µg/mL)

CC[C@H](C)[C@H](NC(=O)[C@H](C)NC(=O)[C@H](CCCCN)NC(=O)[C@H](CC(C)C)NC(=O)[C@H](C)NC(=O)[C@@H](NC(=O)[C@H](Cc1cnc[nH]1)NC(=O)[C@H](CC(C)C)NC(=O)[C@@H](NC(=O)[C@@H](NC(=O)[C@H](CCCCN)NC(=O)[C@H](C)NC(=O)[C@H](C)NC(=O)[C@H](CO)NC(=O)[C@H](CCCCN)NC(=O)[C@H](Cc1ccccc1)NC(=O)[C@@H](NC(=O)[C@H](CCCCN)NC(=O)[C@H](CC(C)C)NC(=O)[C@H](Cc1ccccc1)NC(=O)[C@H](CO)NC(=O)[C@H](CCCCN)NC(=O)[C@H](Cc1c[nH]c2ccccc12)NC(=O)[C@H](CCCCN)NC(C)=O)[C@@H](C)O)[C@@H](C)O)C(C)C)[C@@H](C)O)C(=O)N[C@@H](CO)C(=O)N[C@@H](CO)C(N)=O [KWKSFLKTFKSAAKTVLHTALKAISS]
MIC (Bacillus subtilis C971): 0.692 µM (≈ 2.03 µg/mL) | MIC [17]: 0.692 µM (≈ 2.03 µg/mL) | MIC [18]: 5.53 µM (≈ 16.2 µg/mL) | MIC [19]: 2.83 µM (≈ 8.3 µg/mL) | MIC (Escherichia coli DC2): 0.864 µM (≈ 2.54 µg/mL) | MIC (Escherichia coli UB1005): 0.864 µM (≈ 2.54 µg/mL) | MIC [20]: 4 µM (≈ 11.7 µg/mL) | MIC [21]: 8 µM (≈ 23.5 µg/mL) | MIC [22]: 1.73 µM (≈ 5.07 µg/mL) | MIC [23]: 2.21 µM (≈ 6.49 µg/mL) | MIC [24]: 2.21 µM (≈ 6.49 µg/mL) | MIC [25]: 0.864 µM (≈ 2.54 µg/mL) | MIC [26]: 2.77 µM and 5.66 µM | MIC [27]: 1.73 µM (≈ 5.07 µg/mL) | MIC [28]: 2.83 µM (≈ 8.3 µg/mL) | MIC [29]: 1.11 µM (≈ 3.25 µg/mL) | MIC [30]: 2 µM (≈ 5.87 µg/mL)

CC[C@H](C)[C@H](NC(=O)[C@H](CCCN=C(N)N)NC(=O)[C@@H](N)Cc1c[nH]c2ccccc12)C(=O)N[C@@H](CCCN=C(N)N)C(=O)N[C@@H](CCCN=C(N)N)C(=O)N[C@@H](CCCN=C(N)N)C(=O)N1CCC[C@H]1C(=O)N1CCC[C@H]1C(=O)N[C@@H](CCCN=C(N)N)C(=O)N[C@@H](CC(C)C)C(=O)N1CCC[C@H]1C(=O)N[C@@H](CCCN=C(N)N)C(=O)N1CCC[C@H]1C(=O)N[C@@H](CCCN=C(N)N)C(=O)N[C@@H](Cc1c[nH]c2ccccc12)C(=O)N[C@@H](CCCN=C(N)N)C(=O)O [WRIRRRPPRLPRPRWR]
MIC [31]: 32 µM (≈ 72.2 µg/mL) | MIC [32]: 3 µM (≈ 6.76 µg/mL) | MIC (Escherichia coli BW25113): 2 µM (≈ 4.51 µg/mL) | MIC [20]: 4 µM (≈ 9.02 µg/mL) | MIC [21]: 64 µM (≈ 144 µg/mL) | MIC [26]: 32 µM (≈ 72.2 µg/mL)
